Source: patent publication US12171813B2, “Methods of and compositions for reducing gene expression and/or activity” (Christiana Care Gene Editing Institute, Inc., priority 2021, dated 2024)

Tested on: EGFR gene
Experiment: Screening of SureKill guide RNAs in the EGFR gene for ability to induce indels
Format: cell-based
Conditions: transfections of individual guide RNAs (spCas9 RNP); PDMR human lung adenocarcinoma cells with EGFR L858R; DECODR
Description: Human lung squamous cell carcinoma NCI-H1703 clone 44-25 cells were derived from NCI-H1703 cells (#CRL-5889) which were purchased from ATCC (Manassas, VA, USA). NCI-H1703 clone 44-25 cells contains R34G mutation (C 4 G) in NFE2L2 gene. H1703 clone 44-25 cells were cultured in ATCC formulation RPMI-1640 with 10% FBS. T75 flasks were used and cells were split 1:5 upon reaching 90% confluency. Human lung adenocarcinoma cells (Dist. Lot. No. LG0703-F948-PDC) were acquired from the National Institute of Health's National Cancer Institute's Patient-Derived Models Repository (PDMR). This PDMR cell line contains the L858R mutation (T 4 G) in the EGFR gene. The PDMR cells were maintained in Advanced DMEM/F12 media containing 10% FBS, 0.4 μg/mL hydrocortisone, 0.01 μg/mL EGF Recombinant Human Protein, 24 μg/mL adenine, and 2 mM L-Glutamine. T75s were used and cells were split 1:3 upon reaching 90% confluency. All cultures were maintained in cell culture incubators at 37° C. and 5% CO2.
Ribonucleoproteins (RNP) are complexed by incubating 250 pmol of purified synthetic gRNA (Synthego Corporation, Redwood City, CA) with 50 pmol of purified spCas9 (Synthego Corporation, Redwood City, CA) at room temperature in nuclease-free 1× TE buffer for 15 minutes.
Transfections were carried out using the Lonza Nuclefector 4d. Cultures in t75s at 90% confluence were split 1:2 24 hours prior to transfection. RNPs were complexed at 250:50 pmol for 30 minutes prior to transfection, during which time cells were harvested and counted. All reactions were 100 μL and contained 1 e6 cells. Lonza SF solution and Nucleofector program CM-130 were used in all transfections of the H1703 cell line. Lonza SE solution and Nucleofector program CA-137 were used in all transfections of the PDMR. After transfection, 500 μL of media that had been equilibrated to cell culture CO2 and temperature conditions was added to each 100 μL cuvettes. Cuvettes were then placed in the incubator. After 20 minutes, the entire content of each cuvette was seeded into 3 mL of media in a 6 well plate. After 72 hours, samples were dissociated using 200 μL Trypsin 0.25% for 5 minutes. 800 μL culture media was used to quench and split into 1.5 mL tubes each containing 500 μL of the sample. Tubes were spun at 300×g for 5 minutes. One of the tubes was placed in the −20° C. freezer and the other was resuspended in 500 μL of Trizol for RNA extraction and cDNA synthesis.
All sequencing was performed on the Applied Biosystems SeqStudio. The BigDye Terminator v3.1 Cycle Sequencing Kit was used to prepare samples for sequencing. Resulting sequences were analyzed with DECODR to determine indel rates (Bloh et al., CRISPR J. 4:120-31 (2021)).
Human EGFR is a frequently mutated gene that is associated with cancers. One of the most common mutations is L858R which results in the creation of a novel PAM site, making it a targetable sequence by CRISPR. Like the R34G mutation, the CRISPR designed to target the L858R mutation is not highly efficient on its own. By combining the L858R-targeting CRISPR with another CRISPR of high efficiency in a downstream intronic region, exon skipping can be induced, resulting in a higher efficiency of functional knockout than the L858R targeting CRISPR alone. To find a suitable gRNA to pair with the L858R targeting CRISPR, we selected the intron between exons 21 and 22 (FIG. 6). A series of gRNAs were created in this region and screened for their ability to induce indels, a measure of their activity using DECODR (Bloh et al., CRISPR J. 4:120-31 (2021)) (Table 3).
In Table 3, all sequences are listed from 5′ to 3′. Indel percent, a measure of CRISPR activity, is based on transfections of individual guide RNAs. All guide RNAs, with the exception of L858R, were designed in the intron between exons 21 and 22.

With “L858R gRNA: guide RNA TCAAGATCACAGATTTTGGG, SEQ ID NO:8, targets EGFR L858R mutation (listed as DNA, chemistry not given here)” the indel % was 73.2%.
